Source: patent publication US20250098679A1, “HERBICIDAL PYRIDONE DERIVATIVES” (SYNGENTA CROP PROTECTION AG, priority 2021, published 2025)

Legend:
Type in all cases: in vivo
Settings in all cases: evaluated after 13 days
Zea mays (ZEAMX) [1] = assay: Post-emergence Test, Zea mays (ZEAMX); set-up: key to percentage damage caused to the plant, ZEAMX (five-point scale): 5=81-100%, 4=61-80%, 3=41-60%, 2=21-40%, 1=0-20% damage
Method in brief: (§1)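 Scores are percentage plant damage on a 1–5 scale (1=0-20%, 2=21-40%, 3=41-60%, 4=61-80%, 5=81-100%), read 13 days after treatment. Pots received a spray at 1000 g/ha unless otherwise stated, formulated in acetone/water (50:50) containing 0.5% Tween 20.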

Setaria faberi (SETFA) [2] = assay: Post-emergence Test, Setaria faberi (SETFA); set-up: key to percentage damage caused to the plant, SETFA (five-point scale): 5=81-100%, 4=61-80%, 3=41-60%, 2=21-40%, 1=0-20% damage
Method in brief: as §1

[3] = system: Amaranthus palmeri (AMAPA); assay: Post-emergence Test, Amaranthus palmeri (AMAPA); set-up: key: 5=81-100%, 4=61-80%, 3=41-60%, 2=21-40%, 1=0-20% damage
Method in brief: as §1

Setaria faberi (SETFA) [4] = assay: Pre-emergence Test, Setaria faberi (SETFA)
[5] = system: Echinochloa crus-galli (ECHCG); assay: Post-emergence Test, Echinochloa crus-galli (ECHCG); set-up: key to percentage damage caused to the plant, ECHCG (five-point scale): 5=81-100%, 4=61-80%, 3=41-60%, 2=21-40%, 1=0-20% damage
Method in brief: as §1

[6] = system: Amaranthus palmeri (AMAPA); assay: Pre-emergence Test, Amaranthus palmeri (AMAPA)
Zea mays (ZEAMX) [7] = assay: Pre-emergence Test, Zea mays (ZEAMX)
[8] = system: Ipomoea hederacea (IPOHE); assay: Post-emergence Test, Ipomoea hederacea (IPOHE); set-up: key to percentage damage caused to the plant, IPOHE (five-point scale): 5=81-100%, 4=61-80%, 3=41-60%, 2=21-40%, 1=0-20% damage
Method in brief: as §1

[9] = system: Echinochloa crus-galli (ECHCG); assay: Pre-emergence Test, Echinochloa crus-galli (ECHCG)
[10] = system: Amaranthus retoflexus (AMARE); assay: Post-emergence Test, Amaranthus retoflexus (AMARE); set-up: key to percentage damage caused to the plant, AMARE (five-point scale): 5=81-100%, 4=61-80%, 3=41-60%, 2=21-40%, 1=0-20% damage
Method in brief: as §1

[11] = system: Ipomoea hederacea (IPOHE); assay: Pre-emergence Test, Ipomoea hederacea (IPOHE)
[12] = system: Amaranthus retoflexus (AMARE); assay: Pre-emergence Test, Amaranthus retoflexus (AMARE)

SMILES	percentage damage caused to the plant, ZEAMX (five-point scale) (Zea mays (ZEAMX) [1]; 250 g/Ha)	percentage damage caused to the plant, ZEAMX (five-point scale) (Zea mays (ZEAMX) [1]; 1000 g/ha)	percentage damage caused to the plant, SETFA (five-point scale) (Setaria faberi (SETFA) [2]; 250 g/Ha)	percentage damage caused to the plant, SETFA (five-point scale) (Setaria faberi (SETFA) [2]; 1000 g/ha)	percentage damage caused to the plant, AMAPA (five-point scale) ([3]; 250 g/Ha)	percentage damage caused to the plant, AMAPA (five-point scale) ([3]; 1000 g/ha)	Pre-emergence Test SETFA, percentage damage caused to the plant (five-point scale) (Setaria faberi (SETFA) [4]; 1000 g/ha)	percentage damage caused to the plant, ECHCG (five-point scale) ([5]; 250 g/Ha)	percentage damage caused to the plant, ECHCG (five-point scale) ([5]; 1000 g/ha)	Pre-emergence Test AMAPA, percentage damage caused to the plant (five-point scale) ([6]; 1000 g/ha)	Pre-emergence Test ZEAMX, percentage damage caused to the plant (five-point scale) (Zea mays (ZEAMX) [7]; 1000 g/ha)	percentage damage caused to the plant, IPOHE (five-point scale) ([8]; 250 g/Ha)	percentage damage caused to the plant, IPOHE (five-point scale) ([8]; 1000 g/ha)	Pre-emergence Test ECHCG, percentage damage caused to the plant (five-point scale) ([9]; 1000 g/ha)	percentage damage caused to the plant, AMARE (five-point scale) ([10]; 250 g/Ha)	percentage damage caused to the plant, AMARE (five-point scale) ([10]; 1000 g/ha)	Pre-emergence Test IPOHE, percentage damage caused to the plant (five-point scale) ([11]; 1000 g/ha)	Pre-emergence Test AMARE, percentage damage caused to the plant (five-point scale) ([12]; 1000 g/ha)	Pre-emergence Test SETFA, percentage damage caused to the plant (five-point scale) (Setaria faberi (SETFA) [4]; 250 g/Ha (*))	Pre-emergence Test AMAPA, percentage damage caused to the plant (five-point scale) ([6]; 250 g/Ha (*))	further results
CCn1c(Cn2cncn2)cc(=O)c(C(=O)O)c1-c1ccc(Cl)c(Cl)c1 [Compound 49, 2-(3,4-dichlorophenyl)-1-ethyl-4-oxo-6-(1,2,4-triazol-1-ylmethyl)pyridine-3-carboxylic acid]	0	0	1 (1=0-20%)	2 (2=21-40%)	0	1 (1=0-20%)	0	0	2 (2=21-40%)	1 (1=0-20%)	0	1 (1=0-20%)	0	1 (1=0-20%)	0	0	0	2 (2=21-40%)			
CCn1c(Cn2cc(C)c(C(F)(F)F)n2)cc(=O)c(C(=O)O)c1-c1ccc(Cl)c(Cl)c1 [Compound 96, 2-(3,4-dichlorophenyl)-1-ethyl-6-[[4-methyl-3-(trifluoromethyl)pyrazol-1-yl]methyl]-4-oxo-pyridine-3-carboxylic acid]	0	4 (4=61-80%)	0	3 (3=41-60%)	0	0	3 (3=41-60%)	2 (2=21-40%)	2 (2=21-40%)	1 (1=0-20%)	0	0	0	3 (3=41-60%)	0	1 (1=0-20%)	1 (1=0-20%)	1 (1=0-20%)			
CCn1c(Cn2ncc3cnc(Cl)cc32)cc(=O)c(C(=O)O)c1-c1ccc(Cl)c(Cl)c1 [Compound 75, 6-[(6-chloropyrazolo[4,3-c]pyridin-1-yl)methyl]-2-(3,4-dichlorophenyl)-1-ethyl-4-oxo-pyridine-3-carboxylic acid]	0		0		1 (1=0-20%)			1 (1=0-20%)				0			1 (1=0-20%)				1 (1=0-20%)	1 (1=0-20%)	Pre-emergence Test ZEAMX, percentage damage caused to the plant (five-point scale) (Zea mays (ZEAMX) [7]; 250 g/Ha (*)): 0; Pre-emergence Test ECHCG, percentage damage caused to the plant (five-point scale) ([9]; 250 g/Ha (*)): 1 (1=0-20%); Pre-emergence Test IPOHE, percentage damage caused to the plant (five-point scale) ([11]; 250 g/Ha (*)): 0; Pre-emergence Test AMARE, percentage damage caused to the plant (five-point scale) ([12]; 250 g/Ha (*)): 1 (1=0-20%)
CCn1c(Cn2nc(C(F)(F)F)cc2C)cc(=O)c(C(=O)O)c1-c1ccc(Cl)c(Cl)c1 [Compound 13a, 2-(3,4-dichlorophenyl)-1-ethyl-6-[[5-methyl-3-(trifluoromethyl)pyrazol-1-yl]methyl]-4-oxo-pyridine-3-carboxylic acid]	0	3 (3=41-60%)	3 (3=41-60%)	4 (4=61-80%)	0	2 (2=21-40%)	4 (4=61-80%)	2 (2=21-40%)	4 (4=61-80%)	0	0	3 (3=41-60%)	2 (2=21-40%)	3 (3=41-60%)	1 (1=0-20%)	0	0	0	2 (2=21-40%)	1 (1=0-20%)	Pre-emergence Test ZEAMX, percentage damage caused to the plant (five-point scale) (Zea mays (ZEAMX) [7]; 250 g/Ha (*)): 0; Pre-emergence Test ECHCG, percentage damage caused to the plant (five-point scale) ([9]; 250 g/Ha (*)): 2 (2=21-40%); Pre-emergence Test IPOHE, percentage damage caused to the plant (five-point scale) ([11]; 250 g/Ha (*)): 0; Pre-emergence Test AMARE, percentage damage caused to the plant (five-point scale) ([12]; 250 g/Ha (*)): 0
CCOC(=O)c1c(-c2ccc(Cl)c(Cl)c2)n(CC)c(Cn2ccc(C(F)(F)F)n2)cc1=O [Compound 1, ethyl 2-(3,4-dichlorophenyl)-1-ethyl-4-oxo-6-[[3-(trifluoromethyl)pyrazol-1-yl]methyl]pyridine-3-carboxylate]	1 (1=0-20%)	3 (3=41-60%)	3 (3=41-60%)	4 (4=61-80%)	0	1 (1=0-20%)	4 (4=61-80%)	3 (3=41-60%)	4 (4=61-80%)	0	0	2 (2=21-40%)	1 (1=0-20%)	3 (3=41-60%)	0	1 (1=0-20%)	0	0	4 (4=61-80%)	0	Pre-emergence Test ZEAMX, percentage damage caused to the plant (five-point scale) (Zea mays (ZEAMX) [7]; 250 g/Ha (*)): 0; Pre-emergence Test ECHCG, percentage damage caused to the plant (five-point scale) ([9]; 250 g/Ha (*)): 2 (2=21-40%); Pre-emergence Test IPOHE, percentage damage caused to the plant (five-point scale) ([11]; 250 g/Ha (*)): 0; Pre-emergence Test AMARE, percentage damage caused to the plant (five-point scale) ([12]; 250 g/Ha (*)): 0
CCn1c(Cn2cnc(OC)n2)cc(=O)c(C(=O)O)c1-c1ccc(Cl)c(Cl)c1 [Compound 44, 2-(3,4-dichlorophenyl)-1-ethyl-6-[(3-methoxy-1,2,4-triazol-1-yl)methyl]-4-oxo-pyridine-3-carboxylic acid]		1 (1=0-20%)		1 (1=0-20%)		3 (3=41-60%)	1 (1=0-20%)		1 (1=0-20%)	3 (3=41-60%)	0		2 (2=21-40%)	2 (2=21-40%)		0	1 (1=0-20%)	2 (2=21-40%)			
